Results on ten molecules are retold here after patent US7671080B2, “1-benzylindole-2-carboxamide derivatives” (N.V. Organon, priority 2005, dated 2010).

This assay deals with T1, human cannabinoid CB1 receptor (Homo sapiens, UniProt P21554).
T1 construct: expressed in transfected cells; co-transfected with AP1-luciferase reporter
Put plainly: In-vitro determination of efficacy and potency at the human CB1 receptor expressed in CHO cells (AP1-luciferase reporter, antagonism of CP-55,940). It is filed as cell-based. The protocol:
In-Vitro Determination of Efficacy and Potency at the Human CB1 Receptor Expressed in CHO Cells
Chinese hamster ovary (CHO) cells, which stably express the human cannabinoid CB1 receptor were co-transfected with a luciferase reporter gene which is under the regulatory control of an AP1-response element (AP1 luc). The cells were suspended in commercially available DMEM/F12 nut mix without phenol red, containing penicillin/streptomycin (50 U/50 μg/ml) and fungizone (1 μg/ml) before being seeded into white walled, white bottomed 96 well plates at a density of 3×10^4 cells per well (100 μl final volume) and incubated overnight (approximately 18 hrs at 37° C., 5% CO2 in air) prior to assay.
10 μl of each dilution was added to the relevant wells in the cell plate to give a final concentration range of 10 μM to 0.1 nM.
Plates were incubated for 5 hours at 37° C. before addition of 100 μl LucLite reagent to each well (reconstituted as per manufacturer's instructions). Plates were sealed with Top Seal and counted on the Packard TopCount (single photon counting, 0.01 minute count time, no count delay).
Following stimulation of the CB1 receptor, luciferase expression is enhanced and this can be measured as an increase in enzyme activity. This reporter system is therefore used as a functional test to evaluate the potency of antagonist compounds at the CB1 receptor. Data was analysed using curve fitting and a minimum sum of squares method to produce pEC50 values.
(In general: In a reporter assay the amount or activity of a reporter protein is the signal.)

T1 sequence (P21554 whole entry): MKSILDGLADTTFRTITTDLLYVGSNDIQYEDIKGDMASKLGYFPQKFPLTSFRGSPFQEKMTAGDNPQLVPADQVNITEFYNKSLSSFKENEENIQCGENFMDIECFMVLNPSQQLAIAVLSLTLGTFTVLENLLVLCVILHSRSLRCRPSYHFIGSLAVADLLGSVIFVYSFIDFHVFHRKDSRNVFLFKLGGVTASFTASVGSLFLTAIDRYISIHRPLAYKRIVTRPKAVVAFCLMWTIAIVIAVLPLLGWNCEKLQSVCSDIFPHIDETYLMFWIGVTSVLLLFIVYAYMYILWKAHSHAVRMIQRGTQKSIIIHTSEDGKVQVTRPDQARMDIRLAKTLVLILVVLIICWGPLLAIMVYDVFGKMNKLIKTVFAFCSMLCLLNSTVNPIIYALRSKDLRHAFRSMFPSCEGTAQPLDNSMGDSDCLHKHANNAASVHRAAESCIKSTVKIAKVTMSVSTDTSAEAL

As to `N#Cc1ccc2c(c1)cc(C(=O)NC[C@H]1CCCC[C@@H]1O)n2Cc1cccc(OC(F)(F)F)c1` (relative stereo) [Example 34, trans-5-Cyano-1-(3-trifluoromethoxybenzyl)-1H-indole-2-carboxylic acid (2-hydroxy-cyclohexylmethyl)amide], the IC50 was less than 1 nM.

Molecule `CN1CCN(c2cccc(Cn3c(C(=O)NC[C@H]4CCCC[C@@H]4O)cc4cc(C#N)ccc43)c2)CC1` (relative stereo) [Example 47, trans-5-Cyano-1-[3-(4-methyl-piperazin-1-yl)-benzyl]-1H-indole-2-carboxylic acid (2-hydroxy-cyclohexylmethyl)amide] came in with an IC50 of 10 to 100 nM. For the molecule `N#Cc1ccc2c(c1)cc(C(=O)N[C@@H]1CCC[C@H]1O)n2Cc1cccc(OC(F)(F)F)c1` (relative stereo) [Example 54, trans-5-Cyano-1-(3-trifluoromethoxybenzyl)-1H-indole-2-carboxylic acid (2-hydroxy-cyclopentyl)amide], the IC50 lay in the range of 1 to 10 nM. Regarding `CC(C)OCCCNC(=O)c1cc2cc(Cl)ccc2n1Cc1cccc(OC(F)(F)F)c1` [Example 15, 5-Chloro-1-(3-trifluoromethoxybenzyl)-1H-indole-2-carboxylic acid (3-isopropoxypropyl)amide], the IC50 was in the range of 10 to 100 nM. For `COc1ccc(OC(F)(F)F)cc1Cn1c(C(=O)NCC(C)(C)CO)cc2cc(C#N)ccc21` [Example 22, 5-Cyano-1-(2-methoxy-5-trifluoromethoxybenzyl)-1H-indole-2-carboxylic acid (3-hydroxy-2,2-dimethylpropyl)amide], the IC50 was 1 to 10 nM.

For the molecule `N#Cc1ccc2c(c1)cc(C(=O)NCC1(O)CCCCC1)n2Cc1cccc(OC(F)(F)F)c1` [Example 60, 5-Cyano-1-(3-trifluoromethoxybenzyl)-1H-indole-2-carboxylic acid (1-hydroxy-cyclohexylmethyl)amide], the IC50 lay in the range of 1 to 10 nM.

In turn, `Cc1ccc(C(F)(F)F)cc1Cn1c(C(=O)NCCC(C)(C)O)cc2cc(C#N)ccc21` [Example 64, 5-Cyano-1-(2-methyl-5-trifluoromethylbenzyl)-1H-indole-2-carboxylic acid (3-hydroxy-3-methylbutyl)amide] registered an IC50 of 1 to 10 nM. As for `N#Cc1ccc2c(c1)cc(C(=O)NCC1(O)CCCC1)n2Cc1cccc(OC(F)(F)F)c1` [Example 65, 5-Cyano-1-(3-trifluoromethoxybenzyl)-1H-indole-2-carboxylic acid (1-hydroxy-cyclopentylmethyl)amide], the figure is 1 to 10 nM. Consider `N#Cc1ccc2c(c1)cc(C(=O)NCC1(CO)CCCC1)n2Cc1cccc(OC(F)(F)F)c1` [Example 68, 5-Cyano-1-(3-trifluoromethoxybenzyl)-1H-indole-2-carboxylic acid (1-hydroxymethyicyclopentylmethyl)amide], for which the half-maximal inhibitory concentration (IC50) was less than 1 nM.

As for `CC(O)(CCNC(=O)c1cc2cc(C#N)ccc2n1Cc1cccc(OC(F)(F)F)c1)C(F)(F)F` (stereo not shown) [Example 71, 5-Cyano-1-(3-trifluoromethoxybenzyl)-1H-indole-2-carboxylic acid (4,4,4-trifluoro-3-hydroxy-3-methylbutyl)amide], the concentration for half-maximal inhibition (IC50) lay in the range of 1 to 10 nM.

As a reminder, the IC50 is the point on the concentration scale where inhibition reaches its midpoint.
